According to publication PMC9969023 (European Journal of Nuclear Medicine and Molecular Imaging, 2023):

^18F-FDG
SUVmax of paratracheal enlarged lymph nodes (patient 2, PET/MR): 21.50 | SUVmax of thickened esophagus (patient 2, PET/MR, 3.7 MBq/kg, 50 to 70 min P.I.): 28.24 | SUVmax of lung nodule (patient 2, PET/MR, nodule in left lung lower lobe): 1.60 | uptake in peritoneal nodules (patient 3, peritoneal metastases, result in words): mild increased uptake
